# Data: patent US6132711A, “Enzymatic antioxidant of allene oxide for lipid peroxidation in biological systems” (Arizona Board of Regents, priority 1997, dated 2000)
# Where “and” joins values, the source holds several entries; their conditions need not be identical. Identical values can stand only once.
# T1: AOS (Parthenium argentatum, UniProt Q40778)
# T1 sequence (Q40778 1-473): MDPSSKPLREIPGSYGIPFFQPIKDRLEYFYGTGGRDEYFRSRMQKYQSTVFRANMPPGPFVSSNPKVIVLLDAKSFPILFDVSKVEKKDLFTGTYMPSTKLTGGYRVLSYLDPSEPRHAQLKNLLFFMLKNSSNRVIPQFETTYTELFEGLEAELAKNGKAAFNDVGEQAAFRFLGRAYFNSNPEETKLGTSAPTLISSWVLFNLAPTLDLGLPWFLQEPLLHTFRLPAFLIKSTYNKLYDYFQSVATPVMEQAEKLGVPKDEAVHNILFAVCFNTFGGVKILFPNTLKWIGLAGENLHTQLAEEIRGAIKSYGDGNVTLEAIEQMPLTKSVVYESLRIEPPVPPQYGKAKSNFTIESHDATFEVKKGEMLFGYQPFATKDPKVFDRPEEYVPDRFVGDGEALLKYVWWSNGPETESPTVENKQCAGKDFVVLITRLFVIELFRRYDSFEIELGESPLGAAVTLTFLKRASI
# B1: lipoxygenase: type V soybean lipoxygenase (Sigma #L-6632) (protein, UniProt P08170 1-839, looked up)
# Seed linoleate …: MFSAGHKIKGTVVLMPKNELEVNPDGSAVDNLNAFLGRSVSLQLISATKADAHGKGKVGKDTFLEGINTSLPTLGAGESAFNIHFEWDGSMGIPGAFYIKNYMQVEFFLKSLTLEAISNQGTIRFVCNSWVYNTKLYKSVRIFFANHTYVPSETPAPLVSYREEELKSLRGNGTGERKEYDRIYDYDVYNDLGNPDKSEKLARPVLGGSSTFPYPRRGRTGRGPTVTDPNTEKQGEVFYVPRDENLGHLKSKDALEIGTKSLSQIVQPAFESAFDLKSTPIEFHSFQDVHDLYEGGIKLPRDVISTIIPLPVIKELYRTDGQHILKFPQPHVVQVSQSAWMTDEEFAREMIAGVNPCVIRGLEEFPPKSNLDPAIYGDQSSKITADSLDLDGYTMDEALGSRRLFMLDYHDIFMPYVRQINQLNSAKTYATRTILFLREDGTLKPVAIELSLPHSAGDLSAAVSQVVLPAKEGVESTIWLLAKAYVIVNDSCYHQLMSHWLNTHAAMEPFVIATHRHLSVLHPIYKLLTPHYRNNMNINALARQSLINANGIIETTFLPSKYSVEMSSAVYKNWVFTDQALPADLIKRGVAIKDPSTPHGVRLLIEDYPYAADGLEIWAAIKTWVQEYVPLYYARDDDVKNDSELQHWWKEAVEKGHGDLKDKPWWPKLQTLEDLVEVCLIIIWIASALHAAVNFGQYPYGGLIMNRPTASRRLLPEKGTPEYEEMINNHEKAYLRTITSKLPTLISLSVIEILSTHASDEVYLGQRDNPHWTSDSKALQAFQKFGNKLKEIEEKLVRRNNDPSLQGNRLGPVQLPYTLLYPSSEEGLTFRGIPNSISI
# Legend:
# [1] = target: T1, AOS; details: for fluorescence over 24 hr, AOS inhibited and antioxidant present: rubber particles, 1 mM ASA plus 1% antioxidant
# [2] = system: rubber transferase (RuT); test: Rubber transferase assay in washed rubber particles ([14C]-IPP incorporation); type: biochemical, guayule; design: inhibition of RuT activity / inhibition of rubber biosynthesis: concentration or dose not given beside the values
# Protocol: RuT assays were performed according to Cornish and Backhaus, Phytochemistry 29: 3809-3813 (1990) using a final reaction volume of 500 μl containing, at final concentration, 3.5 mM MgCl2, 2.5 mM MnCl2 26.7 μM FPP, 85 μM IPP and 1.48 μCi[^14 C]-IPP (sp. act. 57 mCi mM^-1 NEN DuPont) in 50 mM potassium phosphate buffer, pH 8.0. The reaction was initiated by the addition of 200 μl of fresh, triple-washed rubber particle suspensions containing 10-20 mg rubber. Control reactions were made to test IPP incorporation into rubber by omitting FPP or adding 50 mM EDTA to the reaction (Cornish and Backhaus, Phytochem. 29: 3809-3813 (1990)). To control AOS activity, one or more of the following was added to the reaction mix (final concentration): 0.5 to 2 mM SA, 0.5 to 2 mM ASA, 11.2 μM riboflavin plus 11.2 mM TEMED, 0.003% H2 O2, 2.0 U type II porcine pancreatic lipase (Sigma #L-3126) or 9450 U type V soybean lipoxygenase (Sigma #L-6632). These additions were made directly to the washed rubber particles and incubated for 20 min before adding to them to the reaction mix. In reactions that required dark conditions (to prevent the formation of superoxide), assay tubes were foil wrapped. […] H2 O2 was added directly to the particles and incubated for at least 20 min before adding SA or ASA. All RuT assays were run at 15° C. for 16 hours and activity was determined according to Cornish and Backhaus, Phytochemistry 29: 3809-3813 (1990) using liquid scintillation spectroscopy with toluene-based scintillant.
# [3] = target: T1, AOS; test: Superoxide/colorimetry (riboflavin/TEMED/NBT) assay; details: for NBT color after superoxide: rubber particles incubated with inhibitor
# Protocol: A 1-5 μl suspension of fatty acids or rubber particles (at 100 μg μl^-1) was added directly to 200 μl 50 mM potassium phosphate buffer, pH 8.0 containing 2.8 μM riboflavin and 28 mM tetramethyllethylenediamine (TEMED). […] Superoxide was generated by exposing the combined particles and riboflavin/TEMED solution to light, provided by a 100 W bulb, spaced 30 cm from the suspension, for 10 minutes. The degree of reduction was then determined by adding 200 μl 50 mM potassium phosphate buffer, pH 8.0 containing 2.45 mM nitroblue tetrazolium (NBT) and monitoring for 10 min. Reduction of NBT caused a yellow to blue color change. The effect of CO on AOS inhibition and its reversal by exposure to high light was tested by placing the CO and O2 treated suspension directly in front of a water-cooled, slide projector lamp and exposing the mixture to bright light for 1, 5 or 10 min before performing the NBT assay.
# If SOD is present, NBT remains yellow. […] If AOS were active, rubber particles would be protected from peroxidation and NBT would be reduced by superoxide resulting in a blue color. However, if AOS were inactivated, then rubber particles would act as a sink for superoxide and NBT would not be reduced to blue tetrasodium,or would be reduced at a slower rate. For this assay to work, endogenous SOD must not be present in rubber particles.
# [4] = target: T1, AOS; test: Fluorescence spectroscopy of rubber particles incubated with AOS inhibitors; type: biochemical, guayule; design: from tissue; host or cells: washed rubber particles of guayule, carrying the endogenous AOS; details: native rubber particles incubated with 1 mM inhibitor
# Protocol: Rubber particle suspensions containing approximately 5×10^10 particles ml^-1 or 100 μg μl^-1 rubber were extracted for lipids and analyzed according to Yao et al., J Cell Biochem 51: 488-494 (1993); Eldred, Anal. Biochem. 64: 23-36 (1987), Malshet et al., Lipids 9: 328-332 (1974) and above (see sec. 8.1) using a FluoroMax spectrofluoromoeter (JY/SPEX Instruments SA, Inc.) with an excitation maxima of 300 nm and an emission maxima of 405 nm. Background fluorescence was automatically subtracted. […] The effect of pH on relative fluorescence spectroscopy was performed. The effect of pH on relative fluorescence intensities was also determined on lipids extracted from rubber particle lipids according to Malshet et al., Lipids 9: 328-332 (1974).
# [5] = system: linoleic acid conjugated dienes; test: UV spectrophotometry of superoxide-induced linoleic acid conjugated dienes (A234); type: biochemical, guayule; details: AOS preincubated with 1 mM ASA, then linoleic acid + riboflavin/TEMED
# Protocol: Likewise, the effect of superoxide, produced by the riboflavin/TEMED mixture and light, on lipid peroxidation was determined. […] The mixture was exposed to light and scanned in a UV spectrophotometer at 200 to 300 nm at 10 sec intervals for 2 minutes and again at 5 and 10 min. The effect of AOS on superoxide-inducedlinoleic hydroperoxides was determined using partially pure AOS solubilized from fresh rubber particles using the CHAPS extraction and filtration procedure (Pan et al., J Biol Chem 270: 8487-8494, 1995), which removed all remaining rubber. One μg partially pure AOS was added to oxidized linoleic acid and UV scanned at 2 minute intervals.
# This mixture was scanned at A234 followed by addition of riboflavin/TEMED and exposure to 10 min. of light, to produce superoxide. The mixture was rescanned at 10 min intervals.
# [6] = target: T1, AOS; test: Conjugated dienes in lipids extracted from rubber particles incubated with H2O2 (A234); type: biochemical, guayule; design: from tissue; host or cells: washed rubber particles of guayule, carrying the endogenous AOS; details: 1 mM inhibitor, 0.05% H2O2
# Text: Lipids from these particles were extracted and analyzed spectrophotometrically at 234 nm according to Aust, Lipid peroxidation, In: Greenwald R (ed) CRC Handbook of Methods for Oxygen Radical Research, CRC Press, Boca Raton, pp. 203-207 (1985).
# [7] = salicylate + H2O2 in place of superoxide
# [8] = salicylate + non-photoreduced riboflavin/TEMED (no superoxide), compared to controls
# [9] = salicylate + superoxide (riboflavin/TEMED plus light)
molecule,measurement,setting,value
Cc1cc(C(C)(C)C)c(O)c(C(C)(C)C)c1 [BHT],"fluorescence over 24 hr, AOS inhibited and antioxidant present",[1],slight increase in fluorescence
"O=C(O)c1ccccc1O [SA, salicylic acid]",drop in RuT activity,"[2]; 1 mM SA alone, 960 min",10-30%
same,RuT activity,"[2]; 1 mM SA alone, Experiment 1",402.5 ± 18.2 nmol IPP mg^-1 dry rubber 16 hr^-1
same,RuT activity,"[2]; 1 mM SA alone, Experiment 2",320.4 ± 4.5 nmol IPP mg^-1 dry rubber 16 hr^-1
same,RuT activity,"[2]; 1 mM SA alone, Experiment 3",315.9 ± 10.6 nmol IPP mg^-1 dry rubber 16 hr^-1
same,RuT activity,"[2]; 1 mM inhibitor, riboflavin/TEMED + light (superoxide)",74.2 ± 1.29 nmol IPP mg^-1 dry rubber 16 hr^-1 and 98.3 ± 1.56 nmol IPP mg^-1 dry rubber 16 hr^-1 and 74.2 ± 1.3 nmol IPP mg^-1 dry rubber 16 hr^-1
same,RuT activity,"[2]; 1.5 mM inhibitor, no superoxide (dark)",236.7 ± 3.0 nmol IPP mg^-1 dry rubber 16 h
same,RuT activity,"[2]; 1.5 mM inhibitor, superoxide (light)",105.3 ± 3.2 nmol IPP mg^-1 dry rubber 16 h
same,RuT activity,"[2]; 2 mM SA, photo reduced and non-photo reduced riboflavin/TEMED",severely inhibited
same,RuT activity,"[2]; 2 mM inhibitor, no superoxide (dark)",25.1 ± 1.2 nmol IPP mg^-1 dry rubber 16 h
same,RuT activity,"[2]; 2 mM inhibitor, superoxide (light)",18.5 ± 9.24 nmol IPP mg^-1 dry rubber 16 hr^-1
same,inhibition of RuT activity,[2]; [7],89%
same,inhibition of RuT activity,[2]; [8],20%
same,inhibition of RuT activity,[2]; [9],88%
same,NBT color after superoxide,[3],yellow
same,fluorescence of rubber particles,[4],Identical fluorescence patterns
"CC(=O)Oc1ccccc1C(=O)O [ASA, acetylsalicylic acid]",RuT activity,"[2]; 0.5 mM inhibitor, riboflavin/TEMED + dark (no superoxide)",599.3 ± 11.8 nmol IPP mg^-1 dry rubber 16 hr^-1
same,RuT activity,"[2]; 1 mM inhibitor, riboflavin/TEMED + dark (no superoxide)",421.6 ± 105.4 nmol IPP mg^-1 dry rubber 16 hr^-1
same,inhibition of RuT activity,[2]; [7],89%
same,inhibition of RuT activity,[2]; [8],20%
same,inhibition of RuT activity,[2]; [9],88%
same,"A234 on exposure to superoxide, AOS first incubated with inhibitor",[5],notable increase in A234
same,NBT color after superoxide,[3],yellow
same,fluorescence over 24 hr,[1]; rubber particles in presence of 1 mM ASA,fluorescence increased up to 12 hours and then plateaued
same,fluorescence of rubber particles,[4],striking increase in fluorescence
same,conjugated diene formation in extracted lipids (A234),[6],Conjugated dienes formed only when AOS was inhibited by ASA in the presence of H2 O2
"OCc1ccccc1O[C@@H]1O[C@H](CO)[C@@H](O)[C@H](O)[C@H]1O [SAL, salicin]",fluorescence of rubber particles,[4],did not fluoresce
Cc1c(C)c2c(c(C)c1O)CCC(C)(CCCC(C)CCCC(C)CCCC(C)C)O2 (stereo not drawn) [α-tocopherol],"fluorescence over 24 hr, AOS inhibited and antioxidant present",[1],slight increase in fluorescence
"[C-]#[O+] [CO, carbon monoxide]",restoration of AOS activity,"[3]; CO-bound-AOS in rubber particles, high light 1 min",partial restoration of AOS
same,restoration of AOS activity,"[3]; CO-bound-AOS in rubber particles, high light 5 min",maximum restoration of AOS activity
same,AOS activity,"[3]; CO-bound-AOS in rubber particles, more than 5 min high light",reduction in AOS activity
same,NBT color when CO inhibition was reversed by strong light,"[3]; CO-treated rubber particles, strong light",grayish yellow
same,NBT color after superoxide,[3],yellow
"O=C(O)c1cc(S(=O)(=O)O)ccc1O [5SSA, 5-sulfosalicylic acid]",fluorescence of rubber particles,[4],did not fluoresce
B1,RuT activity,[2]; lipoxygenase alone,activity similar to positive controls
same,RuT activity,"[2]; lipoxygenase alone, listed as Lipoxygenase",did not appear to affect RuT activity
same,inhibition of rubber biosynthesis,[2]; lipoxygenase treatment and AOS inhibition,30%
